Test results from ChEMBL document CHEMBL1159249, “Malyngamide H, an ichthyotoxic amide possessing a new carbon skeleton from the Caribbean cyanobacterium Lyngbya majuscula” (J Nat Prod, 1995).
≈ marks a conversion by molar mass, not a printed value.

Legend:
Type in all cases: organism-based
[1] = Ichthyotoxicity in gold fish assessed as death after 1 hr; details: carassius auratus, in vivo
Carassius auratus = test: Ichthyotoxicity in gold fish assessed as inability to swim after 1 hr
Artemia = test: Toxicity in brine shrimp; details: in vivo

C=C(CCNC(=O)CC/C=C/C[C@H](CCCCCCC)OC)[C@@]12O[C@@H]1CC=C(C)C2=O [MALYNGAMIDE H]
LC50 at 1 h [1]: 5 µg/mL (≈ 11.6 µM) | EC50 (Carassius auratus): 2 µg/mL (≈ 4.63 µM) | Activity (Artemia): Not Active
